Values of other authors as cited in patent US20130053541A1, “METHODS FOR DISCOVERING MOLECULES THAT BIND TO PROTEINS” (LYNNTECH, INC., priority 2011, published 2013).

Experiments:
[1] = tested on: mAb-E2; settings: cited from earlier work
[2] = target: T1, ERα (Homo sapiens, UniProt P03372); settings: cited from earlier work
T1 sequence (P03372 1-595): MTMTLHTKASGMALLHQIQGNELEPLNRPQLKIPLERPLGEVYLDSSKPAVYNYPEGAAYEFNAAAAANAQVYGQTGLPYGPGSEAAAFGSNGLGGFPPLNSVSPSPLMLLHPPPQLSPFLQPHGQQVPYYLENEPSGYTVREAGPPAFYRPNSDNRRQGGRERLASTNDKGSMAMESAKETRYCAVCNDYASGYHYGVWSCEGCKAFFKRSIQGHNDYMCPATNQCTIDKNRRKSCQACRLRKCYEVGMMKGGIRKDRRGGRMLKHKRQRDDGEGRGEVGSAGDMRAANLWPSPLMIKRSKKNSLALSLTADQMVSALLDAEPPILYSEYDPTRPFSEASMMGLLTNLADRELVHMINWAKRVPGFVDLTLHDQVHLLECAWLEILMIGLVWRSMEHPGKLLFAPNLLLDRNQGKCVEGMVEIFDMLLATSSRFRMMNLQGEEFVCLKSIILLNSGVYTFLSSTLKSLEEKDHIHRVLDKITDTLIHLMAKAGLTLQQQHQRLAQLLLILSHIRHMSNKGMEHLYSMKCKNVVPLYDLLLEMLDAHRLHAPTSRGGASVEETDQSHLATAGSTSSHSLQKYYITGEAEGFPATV

[3] = cited from earlier work
[4] = target: T2, ERRgamma ligand-binding domain (LBD) (Homo sapiens, UniProt P62508); settings: cited from earlier work; for interaction with ERRgamma: in the absence of ligand
T2 sequence (P62508 233-457 limits assumed): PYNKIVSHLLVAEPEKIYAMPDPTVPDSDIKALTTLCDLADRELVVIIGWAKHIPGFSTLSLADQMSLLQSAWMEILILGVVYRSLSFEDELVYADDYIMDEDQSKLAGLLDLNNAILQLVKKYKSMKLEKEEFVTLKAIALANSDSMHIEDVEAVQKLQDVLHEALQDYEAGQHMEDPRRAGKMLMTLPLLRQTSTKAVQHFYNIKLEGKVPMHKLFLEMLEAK

[5] = target: T3, (Homo sapiens, UniProt P11474); settings: phage display peptides; cited from earlier work
T3 sequence (P11474 1-423): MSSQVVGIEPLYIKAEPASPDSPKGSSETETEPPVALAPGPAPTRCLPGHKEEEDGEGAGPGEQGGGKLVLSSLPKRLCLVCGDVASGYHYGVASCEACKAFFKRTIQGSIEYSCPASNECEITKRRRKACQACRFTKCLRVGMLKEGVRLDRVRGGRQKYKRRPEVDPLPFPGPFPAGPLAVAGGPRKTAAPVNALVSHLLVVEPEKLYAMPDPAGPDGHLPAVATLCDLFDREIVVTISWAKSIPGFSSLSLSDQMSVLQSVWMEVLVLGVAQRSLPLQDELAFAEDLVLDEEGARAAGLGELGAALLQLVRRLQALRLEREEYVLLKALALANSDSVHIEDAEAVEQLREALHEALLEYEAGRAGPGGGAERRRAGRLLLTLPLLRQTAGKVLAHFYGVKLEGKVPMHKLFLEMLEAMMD

[6] = target: T1, ERα; settings: inhibition of estrogen receptor/coactivator recognition, cited from earlier work; for Ki: read-out: K, values ERα
[7] = target: ERβ (Homo sapiens, UniProt Q92731); settings: cited from earlier work; for Ki: inhibition of estrogen receptor/coactivator recognition, read-out: K, values ERβ; for ERβ/ERα: ratio of K values
Chain of ERβ (Q92731 whole entry, species assumed): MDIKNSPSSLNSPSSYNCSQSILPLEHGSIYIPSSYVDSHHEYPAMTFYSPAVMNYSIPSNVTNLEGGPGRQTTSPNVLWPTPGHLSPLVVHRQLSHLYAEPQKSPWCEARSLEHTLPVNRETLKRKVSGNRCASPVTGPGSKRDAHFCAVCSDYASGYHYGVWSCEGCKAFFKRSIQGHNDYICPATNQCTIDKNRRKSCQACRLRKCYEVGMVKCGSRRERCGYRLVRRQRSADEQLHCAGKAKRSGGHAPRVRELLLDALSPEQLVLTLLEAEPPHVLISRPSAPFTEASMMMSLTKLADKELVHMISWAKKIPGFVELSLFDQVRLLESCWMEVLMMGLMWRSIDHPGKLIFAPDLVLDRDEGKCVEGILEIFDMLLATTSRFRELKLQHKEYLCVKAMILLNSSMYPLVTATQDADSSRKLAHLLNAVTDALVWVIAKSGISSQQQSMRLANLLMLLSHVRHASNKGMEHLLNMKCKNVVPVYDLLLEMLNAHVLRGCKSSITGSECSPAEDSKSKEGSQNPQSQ

## VSWFFED [EMP-2]
[1]
  IC50: 0.03 µM
[2]
  IC50: 100 µM
[3]
  estrogenic activity in vivo: possess estrogenic activity in vivo

## LPYEGSLLLKLLRAPVEEV [Peptide D22]
[4]
  interaction with ERRgamma: interacted most strongly

## EAEEPSLLKKLLLAPANTQ [PGC1alpha]
[4]
  interaction with ERRgamma: interacted most strongly

## IPLSGSELSRLLLTEMPEL [Peptide L3-80]
[5]
  inhibition of transcriptional activity of EPPα: reducing the transcriptional activity of EPPα to basal levels

## KHKILHRLLQDSS [Structure 4]
[6]
  Ki: 0.38 µM
[7]
  Ki: 6.9 µM
  ERβ/ERα: 18.1

## VSWFFE [EMP-1]
[1]
  IC50: 0.006 µM
[2]
  IC50: 100 µM
[3]
  estrogenic activity in vivo: possess estrogenic activity in vivo

## LTERHKILHRLLQEGSPSD [Structure 9]
[6]
  Ki: 0.7 µM
[7]
  Ki: 5.2 µM
  ERβ/ERα: 7.4

## LEQLL [Structure 1, H-Leu-Glu-Gln-Leu-Leu-OH]
[6]
  K, values ERα: not active
[7]
  Ki: 201 µM

## KKILHRLLQ [Structure 3]
[6]
  Ki: 0.17 µM
[7]
  Ki: 2.8 µM
  ERβ/ERα: 16.5

## PSEDRGELWRLLSVTERQN [Peptide L3-09]
[5]
  inhibition of transcriptional activity of EPPα: reducing the transcriptional activity of EPPα to basal levels

## 4-hydroxytamoxifen
[4]; increasing concentrations
  displacement of fluorescein-labeled PGC1alpha peptide from the ERRgamma LBD: displaced

## GPQTPQAQQKSLLQQLLTE [SRC1-4]
[4]
  interaction with ERRgamma: interacted most strongly

## QAQQKSLLQQLLTE [Structure 10]
[6]
  Ki: 0.45 µM
[7]
  Ki: 1.1 µM
  ERβ/ERα: 2.4

## Mannosylacetyl-Leu-Glu-Gln-Leu-Leu-OH (Mannosylacetyl-LEQLL-OH) [Structure 2]
[6]
  Ki: > 200 µM
[7]
  Ki: > 200 µM

## MSVQYPELQRLLMAGSTEL [Peptide L3-28]
[5]
  inhibition of transcriptional activity of EPPα: reducing the transcriptional activity of EPPα to basal levels
